Measurements from paper PMC2877875, “Characterisation of the bifunctional dihydrofolate synthase–folylpolyglutamate synthase from Plasmodium falciparum; a potential novel target for antimalarial antifolate inhibition” (Molecular and Biochemical Parasitology, 2010).
“Also recorded” adds a separate entry of the source. Read-outs that look alike come from different tables or passages of the source.

How the values were obtained:
[1] = target: PfDHFS–FPGS (FPGS activity) (Plasmodium falciparum, UniProt Q8IE69); test: biochemical; assay type: biochemical
Description: (§1) A standard reaction mix based on those established for bacterial and eukaryotic DHFS/FPGS assays was adopted [[28,36,37]] and contained 10 mM MgCl2, 5 mM DTT, 200 mM KCl, 100 mM Tris, 50 mM glycine, 1 mg/ml BSA, 45 μg/ml DHFS–FPGS protein (0.72 μM), pH 10. […] The enzyme reactions were carried out at 37 °C for 60 min in triplicate and stopped by transferring reaction tubes into an ice-cold water bath. Reaction mixes were then spotted onto DE81 ion-exchange paper (pre-treated with 0.5 M EDTA, pH 8.0 and then dried), air dried and the unreacted label washed away with 125 ml of 40 mM NaCl, 10 mM Tris–HCl, pH 8.0, four times, 20 min each wash. The filter was then exposed to a storage phosphor screen overnight and the screen scanned with a quantitative imager (Typhoon Trio Variable Mode Imager, GE Healthcare, UK). The measured counts were converted to concentrations by comparison with a standard curve derived from known amounts of the radiolabelled L-glutamate subsequently used as substrate in the assays. The enzyme activity data was analysed using the Matlab software package. Regression curves were fitted using the least squares routine.

[2] = test system: bacterial and mammalian FPGS; conditions: read-out: Km with bacterial and mammalian FPGS; cited from earlier work
[3] = test system: P. falciparum FCB strain; test: Metabolic labelling of parasite cultures with 3H-folinic acid and 3H-methotrexate, HPLC analysis; assay type: cell-based, Plasmodium falciparum; conditions: for conversion to polyglutamylated forms in parasite cultures: 3H label 0.5 μCi/ml, ring-stage culture, 20 h incubation, HPLC
Description: 0.5 μCi/ml of either ^3H-folinic acid or ^3H-methotrexate at the same specific activity was used to label parallel 50 ml synchronous cultures of P. falciparum FCB strain. Label was incubated with ring-stage (6–10 h) parasites, which were harvested at the late trophozoite stage 20 h later. The labelled products were extracted by the boiling method and analysed using HPLC on a C18 column eluted with an acetonitrile gradient as described.

[4] = target: PfDHFS–FPGS (DHFS activity) (Plasmodium falciparum, UniProt Q8IE69); test: DHFS assay of recombinant PfDHFS–FPGS ([14C]glutamate incorporation); assay type: biochemical; conditions: for Km: low co-substrate concentrations (ATP or glutamate ≤25 μM), Michaelis–Menten fit, read-out: apparent Km, DHFS activity
Description: as §1

[5] = test system: bacterial DHFS; conditions: cited from earlier work
[6] = test system: P. falciparum cultures; test: Growth of P. falciparum cultures (dose–response); assay type: cell-based, Plasmodium falciparum
[7] = substrate: N[C@@H](CCC(=O)O)C(=O)O; test: DHFS assay of recombinant PfDHFS–FPGS ([14C]glutamate incorporation); assay type: biochemical; conditions: other: low co-substrate concentrations (ATP or glutamate ≤25 μM), Michaelis–Menten fit; 37.0 °C
Description: as §1

[8] = low substrate concentrations, 25 μM substrate, 25 μM ATP, 18 μM glutamate

5,6,7,8-tetrahydrofolate [THF]
processing as substrate for polyglutamylation by FPGS activity (words) [1]: efficiently converted to polyglutamylated forms | Km [2]: 2 to 5 µM

Nc1nc(=O)c2c([nH]1)NCC(CNc1ccc(C(=O)N[C@@H](CCC(=O)O)C(=O)O)cc1)N2C=O (mixture of isomers) [folinic acid]
conversion to polyglutamylated forms in parasite cultures [3]: almost complete

Nc1ncnc2c1ncn2[C@@H]1O[C@H](COP(=O)(O)OP(=O)(O)OP(=O)(O)O)[C@@H](O)[C@H]1O [ATP]
Km [4]: 22.8 µM

Nc1nc(=O)c2c([nH]1)NCC(CNc1ccc(C(=O)N[C@@H](CCC(=O)O)C(=O)O)cc1)=N2 [DHF, 7,8-dihydrofolate]
processing as substrate for polyglutamylation by FPGS activity (words) [1]: very poor substrates | polyglutamylated forms of folate produced compared with that produced from THF ([1]; high substrate concentrations, 100 μM substrate, 2 mM ATP, 200 μM glutamate): 12% | processing as substrate for polyglutamylation by FPGS activity (words) ([1]; listed as dihydrofolate): negligibly processed | polyglutamylated forms of folate produced compared with that produced from THF [1, 8]: 21%

Nc1nc2c(c(=O)[nH]1)N=C(CNc1ccc(C(=O)O)cc1)CN2 [DHP, 7,8-dihydropteroate]
Km [5]: 0.4 to 6 µM | DHP concentration at which DHFS activity peaked ([4]; ATP 0.5 mM, glutamate up to ∼1 mM): 1 to 2 µM | dissociation constant KA for the substrate binding (catalytic site) ([4]; best-fit model a (partial substrate inhibition, three substrates), ATP 6 μM to 5 mM, glutamate 25 μM to 1 mM, n = 15): 0.50 µM | Kd ([4]; best-fit model a, ATP 6 μM to 5 mM, glutamate 25 μM to 1 mM, n = 15, read-out: dissociation constant KABCA for the substrate (DHP) inhibition (inhibitory site)): 1250 nM | DHP concentration above which substrate inhibition became significant ([4]; high ATP and glutamate): > 2 µM | Km [4]: 0.88 µM

Nc1nc2c(c(=O)[nH]1)N=C(CNc1ccc(P(=O)(O)CC(CCC(=O)O)C(=O)O)cc1)CN2 (stereo not shown) [H2-1]
Ki [1]: 630 nM | IC50 [4]: 410 nM | Ki [4]: 140 nM | potency for DHFS activity over FPGS activity ([4]; from Ki values): about 5 fold

Nc1nc2c(c(=O)[nH]1)N=C(CNc1ccc(C(=O)N[C@@H](CCP(=O)(O)CC(CCC(=O)O)C(=O)O)C(=O)O)cc1)CN2 (stereo partly shown) [H2-2]
IC50 [1]: 390 nM | Ki [1]: 91 nM | potency for FPGS activity over DHFS activity ([1]; from Ki values): ~20 fold | Ki [4]: 1690 nM

CN(Cc1cnc2nc(N)nc(N)c2n1)c1ccc(C(=O)N[C@@H](CCC(=O)O)C(=O)O)cc1 [MTX, methotrexate]
conversion to polyglutamylated forms in parasite cultures [3]: no polyglutamylated versions of MTX could be detected; also recorded: No polyglutamylated forms of MTX could be detected | accumulation (uptake and retention) in parasites ([3]; equal initial label concentrations, 20 h): somewhat higher levels than folinic acid; also recorded: exceeded that of folinic acid | processing as substrate for polyglutamylation by FPGS activity (words) [1]: negligibly processed; also recorded: not a substrate | inhibition of FPGS activity ([1]; MTX up to 1.0 mM, THF 10 μM, ATP 5 mM, glutamate 275 μM): inhibited neither DHFS nor FPGS; also recorded: neither the DHFS nor FPGS activities showed any sensitivity | IC50 ([6]; Plasmodium falciparum, average for four different strains): ~40 nM | effect on parasite growth at extremely low levels ([6]; around 1 nM): stimulatory effect on growth | inhibition of DHFS activity ([4]; MTX up to 1.0 mM, DHP 10 μM, ATP 5 mM, glutamate 275 μM): inhibited neither DHFS nor FPGS; also recorded: neither the DHFS nor FPGS activities showed any sensitivity

Nc1nc2ncc(CNc3ccc(P(=O)(O)CC(CCC(=O)O)C(=O)O)cc3)nc2c(=O)[nH]1 (stereo not shown) [compound 1, 2-[[[4-[N-[(2-amino-3,4-dihydro-4-oxo-6-pteridinyl)methyl]amino]phenyl](hydroxy)phosphinoyl]methyl]pentane-1,5-dioic acid]
strong inhibition of DHFS activity by the oxidised form ([4]; oxidised (unreduced) form): not its oxidised form

Nc1nc(=O)c2nc(CNc3ccc(C(=O)N[C@@H](CCC(=O)O)C(=O)O)cc3)cnc2[nH]1 [folic acid]
processing as substrate for polyglutamylation by FPGS activity (words) [1]: very poor substrates; also recorded: very low level of activity | processing as substrate for polyglutamylation by FPGS activity (words) ([1]; listed as folate): negligibly processed | polyglutamylated forms of folate produced compared with that produced from THF [1, 8]: insignificant

B1: PfDHFS–FPGS (DHFS activity) (Plasmodium falciparum 3D7) (protein)
chain: MEKNQNDKSNKNDIIHMNDKSGNYDKNNINNFIDKNDEHDMSDILHKINNEEKKYEEIKSYSECLELLYKTHALKLGLDNPKKLNESFGHPCDKYKTIHIAGTNGKGSVCYKIYTCLKIKKFKVGLFSSPHIFSLRERIIVNDEPISEKELIHLVNEVLNKAKKLYINPSFFEIITLVAFLHFLNKKVDYAIIETGIGGRLDATNILTKPEVIVITSIGYDHLNILGDNLPIICNEKIGIFKKDANVVIGPSVAIYKNVFDKAKELNCTIHTVVPEPRGERYNEENSRIALRTLEILNISIDYFLKSIIPIKPPLRIQYLATEQIQHIKKKFSPDNLEHNVQYPLAVILDVGHNETAIDRLCTDINYFHKGQNIRICISITKPRNLSVFHPFIAQFGDTLKDIFYLPSLNERTYDFEEIVEMLNNEEEIKNEIKELILSSSKKVGKWLAHEKQGNINEEDALKLYKRGCIPLIIKNAFLECCKDNSILLVCGTFFVFDEVLNVFDIHSDMQDTIFMNEPSLV
Km [7]: 5.97 µM
